Test results taken from patent publication US7179645B2 (priority 2002, dated 2007).
Where a SMILES comes first, the peptide text is derived from it. [ ]: non-standard residue; d: D form. The star is where a group is joined. Nle = CCCC[C@H](N)C(=O)O; Cbz = O=C(OCc1ccccc1)*; ava = not defined here

Experiments:
[1] = system: orthopoxviruses, including variola; conditions: cited from earlier work
[2] = system: primary mouse macrophages and macrophage-like cell lines; conditions: cited from earlier work
SKOV3.A2 = conditions: cited from earlier work
[3] = system: early stage breast cancer patients; conditions: in vivo; cited from earlier work
[4] = system: C3H/HeJ mice (H-2^k); antibodies against the PGCC(95–104) epitope peptide; conditions: mouse, in vivo
[5] = system: C3H/HeJ(H-2^k) mice; splenic T cells; assay type: in vivo, mouse; conditions: for IFN-γ/Th-1 responses to the HIV gp160(843–855) epitope (ELISPOT): C3H/HeJ mice, 40 nmole, boosts day 13 and 31, spleens day 35
Description: An ELISPOT assay for IFN-γ cytokine responses was performed in order to titer more exactly splenic T lymphocyte subset responses to immunization with Ii-Key-ava-gp160(843–855) or gp160(843–855). The assay was performed as follows. A solution of the cytokine-specific capture antibody (100 μl at 6 μg/ml in phosphate-buffered saline solution, pH 7.2) was added to each well of a 96-well Immunospot plate (M200) for an overnight incubation at 4° C. After aspiration, phosphate-buffer saline solution 200 μl containing 10% fetal bovine serum and 1% penicillin-streptomycin-glutamine (mouse medium) was added to each well for 2 hr at RT. After washing four times with 1% Tween-20 in phosphate-buffered saline solution (wash buffer I), 100 μl of single cell suspensions from the spleens of immunized mice at 10^6 cells/well were re-stimulated with 100 μl of peptide-epitope at 5 μg/well in mouse medium and incubated for 20–40 hr at 37° C., 5% CO2. After washing twice with phosphate-buffered saline solution (wash buffer II) and four times with wash buffer 1,100 μl of 2 μg/ml biotinylated anti-mouse IFN-γ in 1× phosphate buffer saline with 10% fetal bovine serum (dilution buffer) was added to each well for 2 hr at RT. After washing five times with wash buffer 1,100 μl of streptavidin-horse radish peroxidase conjugate (1:500) in dilution buffer was added to each well for 1 hr at RT. After washing four times with wash buffer I and two times with wash buffer II, 100 μl of the 3-amino-9-ethylcarbazole/H2O2 substrate (Pharmingen 551951) was added and incubated for 30–60 min in the dark at RT. The reaction was stopped by washing three times with 200 μl of deionized water. ELISPOT data analysis was performed by using the Immunospot 1.7e software (Cellular Limited Technology). Digitized images of quadruplicate wells were analyzed for the presence of spots in which color density exceeds background based on comparison of control cells (naive splenocytes) and experimental cells (splenocytes of immunized mice) cells. Additional counting parameters for spot size and circularity were applied to gate out speckles caused by non-specific antibody binding. Each spot represents a single cell secreting IFN-γ.
C3H/HeJ(H-2^k) mice were immunized with 40 nmole of peptides (50 μl) emulsified with equal volume of incomplete Freund's adjuvant (IFA), subcutaneously at the base of the tail. On day 13 the mice were boosted subcutaneously at the base of the tail with 40 nmole of peptides (50 μl) emulsified with equal amount of incomplete Freund's adjuvant (IFA). On day 31, the mice were boosted intravenously with 40 nmole peptides dissolved in 100 μl Hank's balanced salts solution (HBSS). […]

[6] = system: B10.A (5R) mice; antibodies against the HIV gp160(843–855) peptide; assay type: in vivo, mouse; conditions: peptides in saline solution; for Antibody induction (ELISA), Dilution^−1 20: serum day 35, against HIV gp160(843–855) peptide, serum dilution^−1 20; for Antibody induction (ELISA), Dilution^−1 60: serum day 35, serum dilution^−1 60; for Antibody induction (ELISA), Dilution^−1 180: serum day 35, serum dilution^−1 180; for Antibody induction (ELISA), Dilution^−1 540: serum day 35, serum dilution^−1 540
Description: An ELISA assay for antibody responses following immunization with the experimental peptides indicated above was performed as follows. Fifty microliters (μl) of a solution of the coating peptide at 2 μg/well in 0.1 M carbonate buffer, pH 9.5 was added to each well of a 96-well Nunc-immunoplate (#442404) for an overnight incubation at 4° C. After aspiration, 250 μl of phosphate-buffer saline solution containing 3% fetal bovine serum (assay diluent) was added to each well for 2 hr at RT. After washing three times with assay diluent, 50 μl of 20-times diluted mouse serum in 1:3 serial dilution in assay diluent was added to each well for 2 hr at RT. After washing three times with assay diluent, 50 μl of 1 μg/ml biotinylated goat anti-mouse IgG1 or IgG2a was added to each well and incubated for 1 hr at RT. After washing three times with assay diluent, 50 μl of streptavidin-horse radish peroxidase conjugate (1:1000) was added to each well and incubated for 30 min at RT. After washing three times with assay diluent, 100 μl of tetramethylbenzidine/H2O2 solution (Pharmingen 264 KK) was added to each well for 15 min in the dark at room temperature. The reaction was stopped with 100 μl 1N H2SO4 in each well and the absorbance was read immediately at 450 nm.
B10.A (5R) mice (H-2) were immunized with 20 nmole of peptides in 50 μl phosphate-buffered saline solution, intramuscularly in right and left rear legs on days 1 and 2, respectively. On day 14 the mice were boosted intramuscularly with 40 nmole of peptides in 200 μl Hank's balanced salts solution intramuscularly in a rear leg. On day 30 the mice were boosted intravenously with 40 nmole peptides dissolved in Hank's balanced salts solution (HBSS). On day 35 the mice were sacrificed and serum samples were assayed for antibody titers against the HIV gp160(843–855) peptide.

[7] = system: tumor cells expressing HLA-A24 and CEA; conditions: cited from earlier work
[8] = system: lymphocytes from HLA-B7+ normal blood donors; conditions: cited from earlier work
[9] = system: mice in an ovalbumin-induced asthmatic response; conditions: mouse, in vivo; cited from earlier work
[10] = system: HLA alleles of the A2 supertype (A2.2, A2.3, A2.6 and A6802); conditions: cited from earlier work
[11] = system: MBP-specific autoantibodies in the CSF; conditions: human, in vivo; cited from earlier work
[12] = system: patients with resected melanoma; conditions: human, in vivo; cited from earlier work
[13] = system: B10(A) 5R mice; splenic CD3+/CD4+ T-helper cells; assay type: in vivo, mouse; conditions: splenic cells day 26, double color FACS
Excerpt: To test the mechanism for the much greater immunogenecity of Ii-Key/epitope hybrids epitope peptides, B10(A) 5R mice were immunized with 10 nmole of either gp160(843–855) peptide or Ii-Key/gp160(843–855) in CFA subcutaneously at the right side of the base of the tail. On day 10 the mice were boosted with 40 nmole of hybrid peptide or epitope peptide in saline by intravenous injection. On day 26 mice were sacrificed and splenic cells were obtained. 1×10^6 splenic mononuclear cells were stimulated overnight in the presence of 10 units of recombinant IL-2 and indicated peptides (10 μg/ml). During the last 3 hours of incubation, 2 μM monensin (Golgi-stop, Pharmingen) was added to the cultures, and cells were then stained for both cellular surface markers and intracellular IFN-γ. The FACS assay to quantify antigen specific Th1 helper cell responses was performed as follows. The cells were incubated with 1 μg […] (FC/block, Pharmingen) per 10^6 cells in 100 μl of staining buffer (Dulbecco's phosphate-buffered saline solution without magnesium or calcium). Those cells were stained at 10^6 cells/100 μl with either rat-anti-mouse CD3 or CD4 monoclonal antibodies for 30 min at 4° C. After washing, the cells were re-suspended, fixed with 4% formaldehyde, and permeablized with 0.5% saponin for 20 min at 4° C. The cells were suspended in staining buffer with 0.5% saponin, and stained with the appropriate anti-cytokine or isotype control antibody (IFN-γ, XMG1.2, Pharmingen or IFN-γ isotype control, R3–34, Pharmingen). The cells were incubated for 30 min at 4° C. in the dark, washed and fixed for 10 min with 0.3% formaldehyde in 0.5% saponins in staining buffer for flow cytometric analysis. Flow cytometric analysis was performed as follows. First, CD3^+ cells were gated using dual color dot plot of side scatter versus CD3 FITC as the T-gate population. The CD3^+ cells were then analyzed for CD4 expression to target the CD3^+/CD4^+ T-helper cell population. […]

[14] = IFN-γ ELISPOT, C3H/HeJ(H-2^k) mice, spleens day 35, re-stimulated with HIV gp160(843–855) peptide

Compound: Nc1ccn(C[C@@H](CO)OCP(=O)(O)O)c(=O)n1 [Cidofivir]
- activity against orthopoxviruses [1]: shows activity

Compound: CC(C)C[C@@H](C=O)NC(=O)[C@H](CC(C)C)NC(=O)[C@H](CC(C)C)NC(=O)OCc1ccccc1 [MG132] (Cbz-Leu-Leu-Leu-aldehyde)
- LeTx cytotoxicity [2]: efficiently block

Compound: CCCC[C@@H](C=O)NC(=O)[C@H](CC(C)C)NC(=O)[C@H](CC(C)C)NC(C)=O [acetyl-Leu-Leu-norleucinal] (Ac-Leu-Leu-[Nle]-aldehyde)
- presentation of the CTL epitope Her-2/neu(369–377) (SKOV3.A2): inhibited

Compound: CC(=O)N[C@@H](CSC(=O)[C@]1([C@@H](O)C(C)C)NC(=O)[C@H](C)[C@@H]1O)C(=O)O [lactacystin]
- LeTx cytotoxicity [2]: efficiently block

Compound: CC/C(=C(\c1ccccc1)c1ccc(OCCN(C)C)cc1)c1ccccc1 [tamoxifen]
- overall survival [3]: benefited overall survival
- survival [3]: did not improve survival

Compound: Ac-IAYLKQATAK-NH2 [PGCC, reference compound]
- Antibody induction (ELISA), Dilution^−1 1620 [4]: −0.003
- Antibody induction (ELISA), Dilution^−1 4860 [4]: 0.003

Compound: Ac-LRMK-AYRAIRHIPR-NH2 [gp160(843–855)]
- IFN-γ/Th-1 responses to the HIV gp160(843–855) epitope (ELISPOT) [5]: IFN-γ/Th-1 responses were elicited

Compound: Ac-LRMK-ava-YRAIRHIPR-NH2 [Ii-Key/one-ava/gp160(844–855)]
- IFN-γ/Th-1 responses to the HIV gp160(843–855) epitope (ELISPOT) [5]: IFN-γ/Th-1 responses were elicited

Compound: Gp160 (843–855) (LRMKAYRAIRHIPR)
- Antibody induction (ELISA), Dilution^−1 20 [6]: 0.052
- Antibody induction (ELISA), Dilution^−1 60 [6]: 0.023
- Antibody induction (ELISA), Dilution^−1 180 [6]: 0.000
- Antibody induction (ELISA), Dilution^−1 540 [6]: −0.005

Compound: HLFYSWYK [9.5.6]
- elicitation of CTL lines lysing tumor cells expressing HLA-A24 and CEA [7]: elicited CTL lines that lysed tumor cells

Compound: IPQQHTQVL [CEA9(632)]
- primary CTL responses [8]: induced primary CTL responses

Compound: ISQAVHAAHAEINAAGR [336E-A]
- airway eosinophilia and OVA-specific IL-4 and IL-5 production [9]: significant decrease

Compound: Ii-Key/one-ava/gp160 (843–855) (Ac-LRMK[ava]AYRAIRHIPR-NH2; reading uncertain)
- Antibody induction (ELISA), Dilution^−1 20 [6]: 0.600
- Antibody induction (ELISA), Dilution^−1 60 [6]: 0.157
- Antibody induction (ELISA), Dilution^−1 180 [6]: 0.073
- Antibody induction (ELISA), Dilution^−1 540 [6]: 0.024

Compound: Ii-Key/two-ava/gp160 (843–855) (Ac-LRMK[ava][ava]AYRAIRHIPR-NH2; reading uncertain)
- Antibody induction (ELISA), Dilution^−1 20 [6]: 0.131
- Antibody induction (ELISA), Dilution^−1 60 [6]: 0.039
- Antibody induction (ELISA), Dilution^−1 180 [6]: 0.027
- Antibody induction (ELISA), Dilution^−1 540 [6]: 0.003

Compound: LMTFWNPPV [9.5.2]
- anti-tumor CTL responses [7]: induced vigorous anti-tumor CTL responses
- binding to other common HLA alleles of the A2 supertype [10]: bound tightly

Compound: P85VVHFFKNIVTP96 (PVVHFFKNIVTP; listed as Homo sapiens)
- neurological or systemic side effects [11]: No neurological or systemic side effects were observed
- tolerance to MBP [11]: induced tolerance

Compound: QYSWFVNGTF [9.5.4]
- elicitation of CTL lines lysing tumor cells expressing HLA-A24 and CEA [7]: elicited CTL lines that lysed tumor cells

Compound: YMDGTMSQV [tyrosinase(368–376)(370D)]
- patients developing a positive skin test response [12]: none

Compound: gp160 (843–855) (LRMKAYRAIRHIPR)
- Percentage of cells CD3^+/IFN-γ^+ [13]: 2.05%
- Percentage of cells CD4^+ [13]: 31.03%
- Percentage of cells CD4^+/IFN-γ^+ [13]: 0.94%
- Number (mean number of spots and standard deviation in triplicate wells) [5, 14]: 5 (+/−3.6)
- Size (mean spot size and standard deviation) [5, 14]: 0.019 (+/−0.01) mm^2
